Read-outs that look alike come from different tables or passages of the source.
Key:
rat primary hepatocytes [1] = experiment: Cell shrinkage analysis in hypertonic NaCl solution; type: cell-based; details: 5M NaCl, 20 minutes; 12 hours treatment; HgCl2 0.1 mM for 5 min; vs control cells; FIG. 1
Description: Cell shrinkage analysis. Cell shrinkage analysis was performed on treated and control samples prepared on tissue culture plates as described above. One culture plate at a time was transferred to an Olympus IX70 microscope (Olympus America Inc, Pa.) mounted with a computer interfaced camera (Hamamatsu Corporation, Bridgewater, N.J.). The media from culture plate was aspirated and 1 mL of 5M NaCl solution was added. Response of the cells to the hypertonic NaCl solution was captured at 40× magnification at one minute intervals for 20 minutes. Images were processed using software MetaMorph Imaging System (Molecular Devices, Sunnyvale, Calif.). Using MetaMorp, the variations of the cross-sectional area of the cells at various sites were measured over time to analyze the shrinkage behavior of the cells in the hypertonic solution.

AQP8 [2] = experiment: Confocal immunofluorescence of AQP8 localization in cultured hepatocytes; type: cell-based, rat; details: hepatocytes treated 12 hours; 100 μM Bt2cAMP or 1 μM glucagon; vs control
Description: Confocal immunofluorescence. For confocal immunofluorescence experiments, collagen coated chamber slides were used instead of the tissue culture plates. Hepatocytes (5×10^5) were plated on the collagen-coated chamber slides, and incubated at 37° C. for 4 hours. The cells were then treated with a) Bt2cAMP, b) glucagon and c) normal DMEM media (control) and incubated for 12 hours. After the 12 hours, the cells were fixed with 2% formaldehyde for 10 minutes at room temperature and permeabilized with 0.2% Triton X-100 for 2 minutes. The cells were then treated with a blocking solution containing 3% BSA at room temperature and incubated overnight at 4° C. with goat affinity-purified AQP8 antibody (Santa Cruz Biotechnology Inc., Santa Cruz, Calif.) of dilution 1:50 in PBS. Then, the chamber slides were rinsed with PBS solution and treated with Alexa Flour 488—conjugated donkey anti-goat […] secondary antibody (Invitrogen, Calif.) for 1 hour. The dilution of the secondary antibody used was 1:400 in PBS. Then the cells were treated with 1 μg/mL concentration of Hoechst 33342 (Molecular Probes, Eugene, Oreg.) and mounted with Pro- Long (Molecular Probes, Eugene, Oreg.). Fluorescence localization of the AQP8 was then detected by immersion oil confocal microscopy with 100× magnification lens.

rat primary hepatocytes [3] = experiment: Post-thaw cell viability after cryopreservation (Live-Dead staining); type: cell-based; details: for post-thaw cell viability vs control: 20% DMSO or 20% glycerol in DMEM as CPA, one week at −80° C., 24 hours recuperation, FIG. 2 and 3; for cell survival with glycerol as the CPA compared with DMSO: treated cells, glycerol vs DMSO as cryoprotectant
Description: Cryopreservation of Treated and Control Samples. After treatment of cell cultures for 12 hours, samples were removed from the incubator and placed on ice to reduce the cell temperature to 4° C. to minimize the toxicity of the cryoprotecting agent (CPA). Two different CPA solutions, 20% dimethyl sulfoxide in DMEM media and 20% glycerol in DMEM media were used. The CPA solution (1 mL) was added to the samples and incubated at 4° C. for 10 minutes to reach equilibrium. Samples were transferred to the CryoMed Control Rate freezer (Thermo Forma, Waltham, Mass.).
The controlled cooling process was initiated at 4° C. and a cooling rate of 1° C./min was maintained until −16° C. followed by a cooling rate of 2° C./min until −36° C./min, and thereafter a cooling rate of 10° C./min until a temperature of −80° C. was achieved. The samples were further maintained at −80° C. for 5 minutes to ensure equilibrium. At the end of the freezing process, the samples were transferred immediately to a −80° C. Revco freezer (Kendro Laboratory, Ashville, N.C.) and stored for a week.
Evaluation of Post-thaw Cell Viability. The cryopreserved samples from the −80° C. freeze were transferred to a sterile glass box and plated in a water bath maintained at 37° C. until the media in the frozen samples completely thawed. At this juncture, the samples were between 5-10° C. Immediately, the CPA containing media in the samples was aspirated to prevent any toxicity to the cells. DMEM (1 mL) was added to the samples and incubated at 37° C. for 10 minutes. After 10 minutes of incubation, the media in the samples was again refreshed in order to remove any remaining traces of CPA. These samples were then placed in the incubator at 37° C., 5% CO2 for 24 hours and allowed to recuperate from the freeze-thaw process.
After 24 hours of recuperation time, cell viability of the samples was determined by using nuclei fluorescence dyes. The samples were washed with 1× PBS solution and incubated with Hoechst Dye (1 μg/mL) and Ethidium Homodimer (2 μM)(Molecular Probes, Eugene, Oreg.) in PBS for 30 minutes. The viability solution was aspirated, and samples were fixed by adding 10% formalin (1 mL) (VWR, West Chester, Pa.) and incubating for 20 minutes. Subsequently, the cell viability was examined with a confocal microscope with DAPI (excitation 358 nm; emission 461 nm) and Texas red (excitation 596 nm; emission 620 nm) filters. The fluorescent images obtained were then analyzed using MetaMorp Imaging System.

AQP8 [4] = details: cited from earlier work

## CCCC(=O)Nc1ncnc2c1ncn2[C@@H]1O[C@@H]2COP(=O)(O)O[C@H]2[C@H]1OC(=O)CCC [Bt2cAMP, sodium (3aR,4R,6R,6aR)-4-(6-butanamido-9H-purin-9-yl)-6-[(butanoyloxy)methyl]-2-oxo-tetrahydro-2H-1,3,5,2λ^5-furo[3,4-d][1,3,2] dioxaphosphol-2-olate]
Rat primary hepatocytes [1]
  cross-sectional area of cells over time (shrinkage) in hypertonic environment: significant decrease in their cross-sectional area over time
AQP8 [2]
  AQP8 labeling at the cellular membrane: higher density of AQP8 labeling at the cellular membrane
Rat primary hepatocytes [3]
  post-thaw cell viability vs control: significantly higher than the control
  cell survival with glycerol as the CPA compared with DMSO: significant increase in the cell survival
Rat primary hepatocytes [3]; 12 hrs treatment, most of the culture samples
  post-thaw cell viability of Bt2cAMP-treated vs glucagon-treated samples: higher cell viability compared to the ones treated with glucagon

## [Cl][Hg][Cl] [HgCl2]
Rat primary hepatocytes [1]
  cross-sectional area of cells over time (shrinkage) in hypertonic environment: no significant shrinkage behavior
Rat primary hepatocytes [3]
  post-thaw cell viability vs control: significantly lower cell viability

## OCC(O)CO [glycerol]
Rat primary hepatocytes [3]; glycerol as CPA compared to DMSO
  post-thaw cell viability by CPA used: significantly higher post-thaw cell viability compared to DMSO

## glucagon
Rat primary hepatocytes [1]
  cross-sectional area of cells over time (shrinkage) in hypertonic environment: significant decrease in their cross-sectional area over time
AQP8 [2]
  AQP8 labeling at the cellular membrane: higher density of AQP8 labeling at the cellular membrane
Rat primary hepatocytes [3]
  post-thaw cell viability vs control: significantly higher than the control
  cell survival with glycerol as the CPA compared with DMSO: significant increase in the cell survival
AQP8 [4]; treatment of hepatocytes for 16 hours
  increase in the quantity of AQP8 on cellular membrane: 80%
AQP8 [4]; treatment of hepatocytes for 36 hours
  increase in the quantity of AQP8 on cellular membrane: 120%

— patent publication US20150024406A1, “INCREASED AQUAPORIN EXPRESSION ON CELLULAR MEMBRANE TO IMPROVE CRYOPRESERVATION EFFICIENCY” (priority 2013, published 2015)
